Measured values taken from patent publication EP1151753B1, “PREVENTIVE AND THERAPEUTIC AGENTS FOR ARTERIOSCLEROSIS” (CCI CORPORATION, priority 1999, dated 2000).

What was measured:
[1] = Biochemical test of blood and measurement of body weight, WHHL rabbit model; assay type: in vivo, WHHL type rabbits; conditions: WHHL rabbits
Protocol: Now, the pharmacogenic effect of the agent of this invention for preventing and curing arteriosclerosis will be described specifically below with reference to a pharmacological test using high cholesterol-loaded rabbits and the WHHL (Watanabe heritable hyperlipidemic) rabbits forming a model of the familial high-cholesterol blood disease. The data were wholly reported by the average ± standard error (SE) and the significant differences among separate groups were determined by the Student's t-test. The risk factor, p < 0.05, was rated as forming a significance of difference.
1. Animal used and feeding conditions In the test, female and male WHHL type rabbits (SPF: Kitayama Labels K.K.) which were eight weeks old at the time of arrival at the laboratory were subjected to quarantine and domestication and visually inspected as to the general condition and, after the absence of abnormality was confirmed, put to use. The body weights at the time of starting administration (at the age of nine weeks) were in the range of 1.5 - 1.9 kg in the case of male rabbits and in the range of 1.4 - 1.8 kg in the case of female rabbits. Throughout the entire duration of the test, the animals were raised as accommodated one each in hanger cages of aluminum installed on a stainless steel rack inside a clean feeding chamber set at a temperature in the range of 20 - 26°, a relative humidity in the range of 40 - 70%, a number of ventilations in the range of 10 - 20 turns/hour, and an illumination time within the range of 12 hours (7.00 - 19:00). They were fed on a commercially available radioactively sterilized solid feed (made by Oriental Kobo K.K. and sold under the product code of "RC4") and they were left freely drinking the tap water delivered by an automatic water supplying device. 2. Setting dosage and method of administration The dosage of TMG was set at 800 mg/head/day. The TMG was solved in reagent grade ethanol. The produced solution was sprayed on the feed and the wet feed was left drying in the air. A mixed feed was prepared so as to contain 800 mg of TMG per 100 g of the feed. The mixed feed was given to the rabbits every morning at a rate of 100 g/day per head for 27 weeks for the sake of attaining oral consumption of the TMG. The feed for the control group was obtained by spraying ethanol alone on a feed and air-drying the wet feed. It was given to the rabbits of the control group at a rate of 100 g/day per head for 27 weeks. 3. Formation of groups and number of animals A control group and a TMG-administration group were formed; each group consistingof threemales and three females, namely a total of six rabbits. These animals were apportioned to the two groups randomly and nevertheless elaborately so as to avoid confusion of the children of one brood in either group to the fullest possible extent and equalize as much as permissible the average body weights and the average total cholesterol numbers in blood serum of the two groups with the body weights and the total cholesterol numbers found at the time of completion of the domestication. 4. […] The blood was centrifuged to separate blood serum and the blood serum was analyzed for the items shown in Table 5 by the use of an automatic analyzer (made by Hitachi. Ltd. and sold under the product code of "736-20"). The body weight of each rabbit was measured at the rate of once a week throughout the entire duration of the administration.

[2] = tested on: cholesterol-loaded rabbits; test: Evaluation of morbid alteration of aorta (Sudan dyeing), cholesterol-loaded rabbit model; assay type: in vivo, New Zealand White (NZW) type rabbits; conditions: cholesterol-loaded NZW rabbits
Text: In the test, female and male New Zealand White (NZW) type rabbits (SPF: Kitayama Labels K.K.) which were seven weeks old at the time of arrival at the laboratory were subjected to quarantine and two weeks' domestication and visually inspected as to the general condition and, after the absence of abnormality was confirmed, put to use. The body weights at the time of starting administration (at the age of nine weeks) were in the range of 1.8 - 2.2 kg in the case of male rabbits and in the range of 1.6 - 2.0 kg in the case of female rabbits. Throughout the entire duration of the test, the animals were raised as accommodated one each in hanger cages of aluminum installed on a stainless steel rack inside a clean feeding chamber set at a temperature in the range of 20 - 26°, a relative humidity in the range of 40 - 70%, a number of ventilations in the range of 10 - 20 turns/hour, and an illumination time within the range of 12 hours (7.00 - 19:00). They were fed on a commercially available radioactively sterilized solid feed (a product containing 1% of cholesterol, made by Oriental Kobo K.K. and sold under the product code of "RC4") and they were left freely drinking the tap water delivered by an automatic water supplying device.
The dosage of TMG was set at 800 mg/head/day. The TMG was solved in reagent grade ethanol. […]

[3] = TMG 800 mg/head/day for 27 weeks
[4] = blood serum, TMG 800 mg/head/day in feed, average ± SE

Cc1c(C)c2c(c(C)c1O)CCC(C)(C[C@H]1O[C@H](CO)[C@@H](O)[C@H](O)[C@H]1O)O2 (stereo partly drawn) [TMG, 2-(α-D-glucopyranosyl)methyl-2,5,7,8-tetramethyl chroman-6-ol]
activity of lowering the blood serum lipids (T-CHO, TG, PL, LDL-CHO) [1, 3]: no activity
biochemical test of blood [1, 3]: no sign of abnormality
Body weight ([1]; TMG 800 mg/head/day in feed, average ± SE): 2.89 ± 0.11 kg
ALB [1, 4]: 2.4 ± 0.1 g/dL
ALP [1, 4]: 87± 5 mU/ml
ChE [1, 4]: 0.19 ± 0.05 U/ml
GOT [1, 4]: 26.0 ± 11.1 mU/ml
GPT [1, 4]: 59.7 ± 12.3 mU/ml
LDH [1, 4]: 97 ± 4 mU/ml
PL [1, 4]: 459 ± 52 mg/dL
T-CHO [1, 4]: 934 ± 49 mg/dL
TG [1, 4]: 169 ± 23 mg/dL
Surface involvement (%) ([2]; area occupied by deposited lipid in whole area of aorta, TMG 800 mg/head/day in feed, 12th week, control 79.7 ± 3.2, p < 0.01): 50.2 ± 5.7 %
occurrence of the atherosclerosis ([2]; TMG 800 mg/head/day for 12 weeks): significantly repressing
